In brackets after ≈: the same amount, converted by molar mass.
Tests used:
[1] = tested on: C. parapsilosis ATCC 22019; assay: Antifungal activity: MIC/MFC, disc-diffusion; format: cell-based; conditions: for MIC: Lodderomyces parapsilosis, ATCC22019, read-out: MIC; for diameter of inhibition zone: C. parapsilosis ATCC 22019, (-) = zone not observed, paper discs 9 mm
How it was run: (§1)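 MIC values come from CLSI/EUCAST-based dilution testing, with cidal concentrations (MBC or MFC) assessed by CLSI procedures and zones by disc diffusion. Compounds were prepared in DMSO.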

C. tropicalis ATCC 750 = assay: Antifungal activity: MIC/MFC, disc-diffusion; format: cell-based; conditions: for MIC: Candida tropicalis, ATCC750, read-out: MIC; for diameter of inhibition zone: C. tropicalis ATCC 750, (-) = zone not observed, paper discs 9 mm
How it was run: as §1

C. tropicalis IBA 171 = assay: Antifungal activity: MIC/MFC, disc-diffusion; format: cell-based; conditions: for MIC: Candida tropicalis, IBA171, read-out: MIC; for diameter of inhibition zone: C. tropicalis IBA 171, (-) = zone not observed, paper discs 9 mm
How it was run: as §1

[2] = tested on: Human normal lung fibroblasts MRC-5; assay: MTT-based viability (cytotoxicity) assay; conditions: for IC50: Homo sapiens, MRC5, 48 h
Procedure: To evaluate the cytotoxic effect of the tested compounds, an MTT-based assay was performed. […] Moreover, based on available IC50 and MIC (for standard and clinical S. aureus MRSA strains) values, the selectivity index (SI) was calculated for several compounds as the IC50/MIC ratio (Table 5).[60]
MRC-5 pd30 human fibroblasts (ECACC) were cultured in MEME, Minimum Essential Medium Eagle (Merck), supplemented with 10% fetal bovine serum (Merck), 2 mM L-glutamine, antibiotics (100 U mL^−1 penicillin, 100 μg mL^−1 streptomycin, Merck) and 1% non-essential amino acids (Merck). Cells were grown in 75 cm^2 cell culture flasks (Sarstedt), in a humidified atmosphere of CO2/air (5/95%) at 37 °C. MTT-based viability assay was conducted as described previously.[26] Optical densities were measured at 570 nm using a BioTek microplate reader. All measurements were carried out in three replicates and the results expressed as a percent of viable cells versus control cells. […] The selectivity index (SI) was calculated as [drawing 30] , in accordance with previously described protocols.[60]

Q: `CC(=O)CCSc1c(F)cc2c(c1F)[Si](C)(C)OB2O` [Compound 3, 4-((5,7-Difluoro-3-hydroxy-1,1-dimethyl-1,3-dihydrobenzo[c][1,2,5]oxasilaborol-6-yl)thio)butan-2-one] was tested. Which MIC [1] did it give?
A: 100 µg/mL (≈ 316 µM)

Q: What about the MIC (C. tropicalis ATCC 750) of the same compound?
A: > 400 µg/mL

Q: What about the MIC (C. tropicalis IBA 171) of the same compound?
A: 400 µg/mL (≈ 1260 µM)

Q: `C[Si]1(C)OB(O)c2cc(F)c(SCCC(=O)ON3C(=O)CCC3=O)c(F)c21` [Compound 5, 2,5-Dioxopyrrolidin-1-yl 3-((5,7-difluoro-3-hydroxy-1,1-dimethyl-1,3-dihydrobenzo-[c][1,2,5]oxasilaborol-6-yl)thio)propanoate] was tested. Which MIC [1] did it give?
A: > 400 µg/mL

Q: And the MIC (C. tropicalis ATCC 750)?
A: > 400 µg/mL

Q: And the MIC (C. tropicalis IBA 171)?
A: > 400 µg/mL

Q: `C[Si]1(C)OB(O)c2cc(F)c(SCCC(N)=O)c(F)c21` [Compound 7, 3-((5,7-Difluoro-3-hydroxy-1,1-dimethyl-1,3-dihydrobenzo[c][1,2,5]oxasilaborol-6-yl)thio)propanamide] was tested. Which MIC [1] did it give?
A: > 400 µg/mL

Q: And the MIC (C. tropicalis ATCC 750)?
A: > 400 µg/mL

Q: And the MIC (C. tropicalis IBA 171)?
A: > 400 µg/mL

Q: How did the MIC [1] turn out when `C[Si]1(C)OB(O)c2cc(F)c(SCCC(=O)N3CCOCC3)c(F)c21` [Compound 8, 3-((5,7-Difluoro-3-hydroxy-1,1-dimethyl-1,3-dihydrobenzo[c][1,2,5]oxasilaborol-6-yl)thio)-1-morpholinopropan-1-one] was run?
A: > 400 µg/mL

Q: And the MIC (C. tropicalis ATCC 750)?
A: > 400 µg/mL

Q: What about the MIC (C. tropicalis IBA 171) of the same compound?
A: > 400 µg/mL

Q: How did the MIC [1] turn out when `C[Si]1(C)OB(O)c2cc(F)c(SCCC(=O)Nc3ncccn3)c(F)c21` [Compound 9, 3-((5,7-Difluoro-3-hydroxy-1,1-dimethyl-1,3-dihydrobenzo[c][1,2,5]oxasilaborol-6-yl)thio)-N-(pyrimidin-2-yl)propanamide] was run?
A: > 400 µg/mL

Q: What about the MIC (C. tropicalis ATCC 750) of the same compound?
A: > 400 µg/mL

Q: What about the MIC (C. tropicalis IBA 171) of the same compound?
A: > 400 µg/mL

Q: `C[Si]1(C)OB(O)c2cc(F)c(SCCC(=O)Nc3cnccn3)c(F)c21` [Compound 10, 3-((5,7-Difluoro-3-hydroxy-1,1-dimethyl-1,3-dihydrobenzo[c][1,2,5]oxasilaborol-6-yl)thio)-N-(pyrazin-2-yl)propanamide] was tested. Which MIC [1] did it give?
A: > 400 µg/mL

Q: What about the MIC (C. tropicalis ATCC 750) of the same compound?
A: > 400 µg/mL

Q: And the MIC (C. tropicalis IBA 171)?
A: > 400 µg/mL

Q: Which MIC [1] does the source give for `Cc1cc(NC(=O)CCSc2c(F)cc3c(c2F)[Si](C)(C)OB3O)no1` [Compound 11, 3-((5,7-Difluoro-3-hydroxy-1,1-dimethyl-1,3-dihydrobenzo[c][1,2,5]oxasilaborol-6-yl)thio)-N-(5-methylisoxazol-3-yl)propanamide] here?
A: > 400 µg/mL

Q: And the MIC (C. tropicalis ATCC 750)?
A: > 400 µg/mL

Q: And the MIC (C. tropicalis IBA 171)?
A: > 400 µg/mL

Q: What does the source list for `C[Si]1(C)OB(O)c2ccc(SC3CC(=O)NC3=O)c(F)c21` (stereo not shown) [Compound 13, 3-((7-Fluoro-3-hydroxy-1,1-dimethyl-1,3-dihydrobenzo[c][1,2,5]oxasilaborol-6-yl)thio)pyrrolidine-2,5-dione]?
A: MIC [1]: > 400 µg/mL; MIC (C. tropicalis ATCC 750): > 400 µg/mL; MIC (C. tropicalis IBA 171): > 400 µg/mL

Q: Which results are given for `C[Si]1(C)OB(O)c2cc(F)c(SC3CC(=O)N(c4ccc(F)cc4)C3=O)c(F)c21` (stereo not shown) [Compound 14, 3-((5,7-Difluoro-3-hydroxy-1,1-dimethyl-1,3-dihydrobenzo[c][1,2,5]oxasilaborol-6-yl)thio)-1-(4-fluorophenyl)pyrrolidine-2,5-dione]?
A: diameter of inhibition zone [1]: 27 mm; MIC [1]: 100 µg/mL (≈ 229 µM); diameter of inhibition zone (C. tropicalis ATCC 750): 20 mm; MIC (C. tropicalis ATCC 750): 200 µg/mL (≈ 457 µM); diameter of inhibition zone (C. tropicalis IBA 171): 19 mm; MIC (C. tropicalis IBA 171): 200 µg/mL (≈ 457 µM); viability of MRC-5 ([2]; 6.25 µg·mL−1, 48 h): 90.4±7.6 % of control ± SD; viability of MRC-5 ([2]; 12.5 µg·mL−1, 48 h): 88.8±5.4 % of control ± SD; viability of MRC-5 ([2]; 25 µg·mL−1, 48 h): 87.5±3.5 % of control ± SD; viability of MRC-5 ([2]; 50 µg·mL−1, 48 h): 80.3±7.5 % of control ± SD; viability of MRC-5 ([2]; 100 µg·mL−1, 48 h): 52.0±2.8 % of control ± SD; viability of MRC-5 ([2]; 200 µg·mL−1, 48 h): 27.3±3.2 % of control ± SD; viability of MRC-5 ([2]; 400 µg·mL−1, 48 h): 0.1±0.1 % of control ± SD; IC50 [2]: 133 µg/mL (≈ 305 µM)

Q: With `C[Si]1(C)OB(O)c2ccc(SC3CC(=O)N(c4ccc(F)cc4)C3=O)c(F)c21` (stereo not shown) [Compound 15, 3-((7-Fluoro-3-hydroxy-1,1-dimethyl-1,3-dihydrobenzo[c][1,2,5]oxasilaborol-6-yl)thio)-1-(4-fluorophenyl)pyrrolidine-2,5-dione] as the compound, how does the “diameter of inhibition zone” value [1] read?
A: 23 mm

Q: And the MIC [1]?
A: 200 µg/mL (≈ 477 µM)

Q: And the “diameter of inhibition zone” value (C. tropicalis ATCC 750)?
A: 14 mm

Q: And the MIC (C. tropicalis ATCC 750)?
A: > 200 µg/mL

Q: And the “diameter of inhibition zone” value (C. tropicalis IBA 171)?
A: 15 mm

Q: And the MIC (C. tropicalis IBA 171)?
A: > 200 µg/mL

Q: And the “viability of MRC-5” value ([2]; 6.25 µg·mL−1, 48 h)?
A: 89.2±0.3 % of control ± SD

Q: And the “viability of MRC-5” value ([2]; 12.5 µg·mL−1, 48 h)?
A: 77.9±4.3 % of control ± SD

Q: And the “viability of MRC-5” value ([2]; 25 µg·mL−1, 48 h)?
A: 73.7±0.8 % of control ± SD

Q: What about the “viability of MRC-5” value ([2]; 50 µg·mL−1, 48 h) of the same compound?
A: 69.9±1.8 % of control ± SD

Q: And the “viability of MRC-5” value ([2]; 100 µg·mL−1, 48 h)?
A: 65.0±0.1 % of control ± SD

Q: What about the “viability of MRC-5” value ([2]; 200 µg·mL−1, 48 h) of the same compound?
A: 41.5±0.7 % of control ± SD

Q: And the “viability of MRC-5” value ([2]; 400 µg·mL−1, 48 h)?
A: 6.7±0.1 % of control ± SD

Q: And the IC50 [2]?
A: 145 µg/mL (≈ 346 µM)

Q: Which “diameter of inhibition zone” value [1] does the source give for `C[Si]1(C)OB(O)c2cc(F)c(SCCC(=O)OCCCCCC[n+]3ccccc3)c(F)c21` [Compound 18, 1-(6-((3-((5,7-difluoro-3-hydroxy-1,1-dimethyl-1,3-dihydrobenzo[c][1,2,5]oxasilaborol-6-yl)thio)propanoyl)oxy)hexyl)pyridin-1-ium trifluoromethanesulfonate] here?
A: 14 mm

Q: And the MIC [1]?
A: 400 µg/mL

Q: What about the MIC (C. tropicalis ATCC 750) of the same compound?
A: 400 µg/mL

Q: And the MIC (C. tropicalis IBA 171)?
A: 400 µg/mL

Q: What does the source list for `C[Si]1(C)OB(O)c2ccc(SCCC(=O)OCCCCCC[n+]3ccccc3)c(F)c21` [Compound 19, 1-(6-((3-((7-Fluoro-3-hydroxy-1,1-dimethyl-1,3-dihydrobenzo[c][1,2,5]oxasilaborol-6-yl)thio)propanoyl)oxy)hexyl)pyridin-1-ium trifluoromethanesulfonate]?
A: diameter of inhibition zone [1]: 16 mm; MIC [1]: 400 µg/mL; diameter of inhibition zone (C. tropicalis ATCC 750): 15 mm; MIC (C. tropicalis ATCC 750): 400 µg/mL; diameter of inhibition zone (C. tropicalis IBA 171): 16 mm; MIC (C. tropicalis IBA 171): 400 µg/mL

Q: For `C[Si]1(C)OB(O)c2ccc(SCCS(=O)(=O)c3ccccc3)c(F)c21` [Compound 21, 7-Fluoro-1,1-dimethyl-6-((2-(phenylsulfonyl)ethyl)thio)benzo[c][1,2,5]oxasilaborol-3(1H)-ol], which MIC [1] is on record?
A: 400 µg/mL (≈ 1010 µM)

Q: And the MIC (C. tropicalis ATCC 750)?
A: > 400 µg/mL

Q: And the MIC (C. tropicalis IBA 171)?
A: 400 µg/mL (≈ 1010 µM)

Q: How did the MIC [1] turn out when `C[Si]1(C)OB(O)c2cc(F)c(S(=O)(=O)Cl)c(F)c21` [Compound 26, 5,7-Difluoro-3-hydroxy-1,1-dimethyl-1,3-dihydrobenzo[c][1,2,5]oxasilaborole-6-sulfonyl chloride] was run?
A: > 400 µg/mL

Q: And the MIC (C. tropicalis ATCC 750)?
A: > 400 µg/mL

Q: What about the MIC (C. tropicalis IBA 171) of the same compound?
A: > 400 µg/mL

Q: With `C[Si]1(C)OB(O)c2cc(F)c(S(=O)(=O)N3CCOCC3)c(F)c21` [Compound 29, 5,7-Difluoro-1,1-dimethyl-6-(morpholinosulfonyl)benzo[c][1,2,5]oxasilaborol-3(1H)-ol] as the compound, how does the “viability of MRC-5” value ([2]; 6.25 µg·mL−1, 48 h) read?
A: 90.1±3.4 % of control ± SD

Q: And the “viability of MRC-5” value ([2]; 12.5 µg·mL−1, 48 h)?
A: 90.6±4.5 % of control ± SD

Q: And the “viability of MRC-5” value ([2]; 25 µg·mL−1, 48 h)?
A: 86.8±4.3 % of control ± SD

Q: And the “viability of MRC-5” value ([2]; 50 µg·mL−1, 48 h)?
A: 80.8±3.4 % of control ± SD

Q: What about the “viability of MRC-5” value ([2]; 100 µg·mL−1, 48 h) of the same compound?
A: 74.1±0.5 % of control ± SD

Q: What about the “viability of MRC-5” value ([2]; 200 µg·mL−1, 48 h) of the same compound?
A: 69.6±2.4 % of control ± SD

Q: What about the “viability of MRC-5” value ([2]; 400 µg·mL−1, 48 h) of the same compound?
A: 60.4±5.2 % of control ± SD

Q: And the IC50 [2]?
A: > 400 µg/mL

Reference: publication PMC11110727, “Exploiting thiol-functionalized benzosiloxaboroles for achieving diverse substitution patterns – synthesis, characterization and biological evaluation of promising antibacterial agents” (RSC Medicinal Chemistry, 2024)
